Data from patent US8796256B2 (Janssen Pharmaceutica NV, priority 2010, dated 2014).

target: T1, ERR1 (also known as ERR-α or ERR-1) (Homo sapiens, UniProt P11474); experiment: TR-FRET assay (disruption of co-activator peptide binding to ERR1 LBD); assay type: biochemical; conditions: 6 nM 6His-ERR1LBD, 6 nM GST-SRC-2 peptide; average of 3 independent experiments
T1 sequence (P11474 193-421 limits assumed): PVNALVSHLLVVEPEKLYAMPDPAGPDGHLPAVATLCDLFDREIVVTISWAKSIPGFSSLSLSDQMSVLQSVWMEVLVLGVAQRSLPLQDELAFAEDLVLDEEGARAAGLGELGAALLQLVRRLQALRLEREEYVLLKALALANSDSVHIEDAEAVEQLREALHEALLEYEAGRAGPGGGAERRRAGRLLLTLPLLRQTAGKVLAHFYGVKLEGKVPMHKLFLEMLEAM
Summary of the method: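 Homogeneous TR-FRET measuring displacement of GST-hSRC2 co-activator peptide (6 nM) from His-tagged ERR1 LBD (6 nM), detected with α-GST Eu cryptate (30 nM) and α-His-XL665 (7.5 nM). Buffer 25 mM Tris pH 8, 2.5 mM Hepes, 20 mM KCl, 1 mM DTT, 0.05 mg/mL delipidated BSA; equilibration 4-18 h at 25° C. Hyperbolic dose-response fit, mean of 3 experiments.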

| EC50 [nM] | SMILES |
| --- | --- |
| 25 | CS(=O)(=O)n1ccnc1CN1C(=O)S/C(=C\c2ccc3c(cnn3Cc3ccc(Cl)cc3C(F)(F)F)c2)C1=O [Compound 410, (5Z)-5-({1-[4-Chloro-2-(trifluoromethyl)benzyl]-1H-indazol-5-yl}methylidene)-3-{[1-(methylsulfonyl)-1H-imidazol-2-yl]methyl}-1,3-thiazolidine-2,4-dione] |
| 29 | O=C1S/C(=C\c2ccc3c(cnn3Cc3ccc(Cl)cc3C(F)(F)F)c2)C(=O)N1Cc1nccn1S(=O)(=O)C(F)(F)F [Compound 411, (5Z)-5-({1-[4-Chloro-2-(trifluoromethyl)benzyl]-1H-indazol-5-yl}methylidene)-3-({1-[(trifluoromethyl)sulfonyl]-1H-imidazol-2-yl}methyl)-1,3-thiazolidine-2,4-dione] |
| 38 | O=C1S/C(=C\c2ccc3c(cnn3Cc3ccc(Cl)cc3C(F)(F)F)c2)C(=O)N1Cc1nccn1S(=O)(=O)N1CCCC1 [Compound 412, (5Z)-5-({1-[4-Chloro-2-(trifluoromethyl)benzyl]-1H-indazol-5-yl}methylidene)-3-{[1-(pyrrolidin-1-ylsulfonyl)-1H-imidazol-2-yl]methyl}-1,3-thiazolidine-2,4-dione] |
| 312 | CC(=O)Nc1nc(CN2C(=O)S/C(=C\c3ccc4c(cnn4Cc4ccc(Cl)cc4C(F)(F)F)c3)C2=O)cs1 [Compound 413, N-(4-{[(5Z)-5-({1-[4-Chloro-2-(trifluoromethyl)benzyl]-1H-indazol-5-yl}methylidene)-2,4-dioxo-1,3-thiazolidin-3-yl]methyl}-1,3-thiazol-2-yl)acetamide] |
| 109 | O=C1S/C(=C\c2ccc3c(cnn3Cc3ccc(Cl)cc3C(F)(F)F)c2)C(=O)N1Cc1csc(NS(=O)(=O)C(F)(F)F)n1 [Compound 414, N-(4-{[(5Z)-5-({1-[4-Chloro-2-(trifluoromethyl)benzyl]-1H-indazol-5-yl}methylidene)-2,4-dioxo-1,3-thiazolidin-3-yl]methyl}-1,3-thiazol-2-yl)-1,1,1-trifluoromethanesulfonamide] |
| 12 | O=C1S/C(=C\c2ccc3c(cnn3Cc3ccc(Cl)cc3C(F)(F)F)c2)C(=O)N1CC(=O)N1CCNS1(=O)=O [Compound 415] |
| 35 | N#Cc1nn(Cc2ccc(Cl)cc2C(F)(F)F)c2ccc(/C=C3\SC(=O)N(CC(=O)O)C3=O)cc12 [Compound 416, [(5Z)-5-({1-[4-Chloro-2-(trifluoromethyl)benzyl]-3-cyano-1H-indazol-5-yl}methylidene)-2,4-dioxo-1,3-thiazolidin-3-yl]acetic acid] |
| 50 | NC(=O)c1nn(Cc2ccc(Cl)cc2C(F)(F)F)c2ccc(/C=C3\SC(=O)N(CC(=O)O)C3=O)cc12 [Compound 417, [(5Z)-5-({3-Carbamoyl-1-[4-chloro-2-(trifluoromethyl)benzyl]-1H-indazol-5-yl}methylidene)-2,4-dioxo-1,3-thiazolidin-3-yl]acetic acid] |
| 83 | Cc1nn(C)c(Cl)c1S(=O)(=O)NCCN1C(=O)S/C(=C\c2ccc3c(cnn3Cc3ccc(Cl)cc3C(F)(F)F)c2)C1=O [Compound 418, 5-Chloro-N-{2-[(5Z)-5-({1-[4-chloro-2-(trifluoromethyl)benzyl]-1H-indazol-5-yl}methylidene)-2,4-dioxo-1,3-thiazolidin-3-yl]ethyl}-1,3-dimethyl-1H-pyrazole-4-sulfonamide] |
| 115 | Cc1noc(C)c1S(=O)(=O)NCCN1C(=O)S/C(=C\c2ccc3c(cnn3Cc3ccc(Cl)cc3C(F)(F)F)c2)C1=O [Compound 419, N-{2-[(5Z)-5-({1-[4-Chloro-2-(trifluoromethyl)benzyl]-1H-indazol-5-yl}methylidene)-2,4-dioxo-1,3-thiazolidin-3-yl]ethyl}-3,5-dimethylisoxazole-4-sulfonamide] |
| 28 | CC(=O)Nc1nc(C)c(S(=O)(=O)NCCN2C(=O)S/C(=C\c3ccc4c(cnn4Cc4ccc(Cl)cc4C(F)(F)F)c3)C2=O)s1 [Compound 420, N-[5-({2-[(5Z)-5-({1-[4-Chloro-2-(trifluoromethyl)benzyl]-1H-indazol-5-yl}methylidene)-2,4-dioxo-1,3-thiazolidin-3-yl]ethyl}sulfamoyl)-4-methyl-1,3-thiazol-2-yl]acetamide] |
| 34 | O=C(O)c1ccc(S(=O)(=O)NCCN2C(=O)S/C(=C\c3ccc4c(cnn4Cc4ccc(Cl)cc4C(F)(F)F)c3)C2=O)o1 [Compound 421, 5-({2-[(5Z)-5-({1-[4-Chloro-2-(trifluoromethyl)benzyl]-1H-indazol-5-yl}methylidene)-2,4-dioxo-1,3-thiazolidin-3-yl]ethyl}sulfamoyl)furan-2-carboxylic acid] |

The next lines start with the molecule.

| SMILES | EC50 [nM] |
| --- | --- |
| O=C1S/C(=C\c2ccc3c(cnn3Cc3ccc(Cl)cc3C(F)(F)F)c2)C(=O)N1CCNS(=O)(=O)N1CCCC1 [Compound 399, N-{2-[(5Z)-5-({1-[4-Chloro-2-(trifluoromethyl)benzyl]-1H-indazol-5-yl}methylidene)-2,4-dioxo-1,3-thiazolidin-3-yl]ethyl}pyrrolidine-1-sulfonamide] | 79 |
| Nc1nc(CN2C(=O)S/C(=C\c3ccc4c(cnn4Cc4ccc(Cl)cc4C(F)(F)F)c3)C2=O)cs1 [Compound 400, (5Z)-3-[(2-Amino-1,3-thiazol-4-yl)methyl]-5-({1-[4-chloro-2-(trifluoromethyl)benzyl]-1H-indazol-5-yl}methylidene)-1,3-thiazolidine-2,4-dione] | 62 |
| O=C1S/C(=C\c2ccc3c(cnn3Cc3ccc(Cl)cc3C(F)(F)F)c2)C(=O)N1Cc1ncon1 [Compound 401, (5Z)-5-({1-[4-Chloro-2-(trifluoromethyl)benzyl]-1H-indazol-5-yl}methylidene)-3-(1,2,4-oxadiazol-3-ylmethyl)-1,3-thiazolidine-2,4-dione] | 36 |
| Cn1cnc(CN2C(=O)S/C(=C\c3ccc4c(cnn4Cc4ccc(Cl)cc4C(F)(F)F)c3)C2=O)c1 [Compound 402, (5Z)-5-({1-[4-Chloro-2-(trifluoromethyl)benzyl]-1H-indazol-5-yl}methylidene)-3-[(1-methyl-1H-imidazol-4-yl)methyl]-1,3-thiazolidine-2,4-dione] | 48 |
| O=C1S/C(=C\c2ccc3c(cnn3Cc3ccc(Cl)cc3C(F)(F)F)c2)C(=O)N1Cc1ncc[nH]1 [Compound 403, (5Z)-5-({1-[4-Chloro-2-(trifluoromethyl)benzyl]-1H-indazol-5-yl}methylidene)-3-(1H-imidazol-2-ylmethyl)-1,3-thiazolidine-2,4-dione] | 20 |
| O=C1S/C(=C\c2ccc3c(cnn3Cc3ccc(Cl)cc3C(F)(F)F)c2)C(=O)N1Cc1nccn1Cc1ncc[nH]1 [Compound 404, (5Z)-5-({1-[4-Chloro-2-(trifluoromethyl)benzyl]-1H-indazol-5-yl}methylidene)-3-{[1-(1H-imidazol-2-ylmethyl)-1H-imidazol-2-yl]methyl}-1,3-thiazolidine-2,4-dione] | 21 |
| O=C1S/C(=C\c2ccc3c(cnn3Cc3ccc(Cl)cc3C(F)(F)F)c2)C(=O)N1Cc1c[nH]cn1 [Compound 405, (5Z)-5-({1-[4-Chloro-2-(trifluoromethyl)benzyl]-1H-indazol-5-yl}methylidene)-3-(1H-imidazol-4-ylmethyl)-1,3-thiazolidine-2,4-dione] | 48 |
| O=C(O)CN1C(=O)S/C(=C\c2ccc3c(c2)c(F)nn3Cc2ccc(Cl)cc2C(F)(F)F)C1=O [Compound 406, [(5Z)-5-({1-[4-Chloro-2-(trifluoromethyl)benzyl]-3-fluoro-1H-indazol-5-yl}methylidene)-2,4-dioxo-1,3-thiazolidin-3-yl]acetic acid] | 13 |
| O=C(O)CN1C(=O)S/C(=C\c2ccc3c(c2)c(Br)nn3Cc2ccc(Cl)cc2C(F)(F)F)C1=O [Compound 407, [(5Z)-5-({3-Bromo-1-[4-chloro-2-(trifluoromethyl)benzyl]-1H-indazol-5-yl}methylidene)-2,4-dioxo-1,3-thiazolidin-3-yl]acetic acid] | 7 |
| O=C(O)CN1C(=O)S/C(=C\c2ccc3c(c2)c(-c2ccc(F)cc2)nn3Cc2ccc(Cl)cc2C(F)(F)F)C1=O [Compound 408, [(5Z)-5-({1-[4-Chloro-2-(trifluoromethyl)benzyl]-3-(4-fluorophenyl)-1H-indazol-5-yl}methylidene)-2,4-dioxo-1,3-thiazolidin-3-yl]acetic acid] | 153 |
| O=C1S/C(=C\c2ccc3c(cnn3Cc3ccc(Cl)cc3C(F)(F)F)c2)C(=O)N1CC1COS(=O)(=O)N1 (centres unmarked) [Compound 409, (5Z)-5-({1-[4-Chloro-2-(trifluoromethyl)benzyl]-1H-indazol-5-yl}methylidene)-3-[(2,2-dioxido-1,2,3-oxathiazolidin-4-yl)methyl]-1,3-thiazolidine-2,4-dione] | > 10000 |
